# US20200199575A1, “ROLE OF EXOSOMES, EXTRACELLULAR VESICLES, IN THE REGULATION OF METABOLIC HOMEOSTASIS” (CHILDREN'S HOSPITAL MEDICAL CENTER, priority 2017, published 2020)
# “Also recorded” adds a separate entry of the source.
# Key:
# N-SMase = molecular target: T1, N-SMase (Rattus norvegicus, UniProt O35049); conditions: rat brain; non-competitive inhibitor; cited from earlier work
# T1 construct: host or cells: rat brain
# T1 sequence (O35049 1-655): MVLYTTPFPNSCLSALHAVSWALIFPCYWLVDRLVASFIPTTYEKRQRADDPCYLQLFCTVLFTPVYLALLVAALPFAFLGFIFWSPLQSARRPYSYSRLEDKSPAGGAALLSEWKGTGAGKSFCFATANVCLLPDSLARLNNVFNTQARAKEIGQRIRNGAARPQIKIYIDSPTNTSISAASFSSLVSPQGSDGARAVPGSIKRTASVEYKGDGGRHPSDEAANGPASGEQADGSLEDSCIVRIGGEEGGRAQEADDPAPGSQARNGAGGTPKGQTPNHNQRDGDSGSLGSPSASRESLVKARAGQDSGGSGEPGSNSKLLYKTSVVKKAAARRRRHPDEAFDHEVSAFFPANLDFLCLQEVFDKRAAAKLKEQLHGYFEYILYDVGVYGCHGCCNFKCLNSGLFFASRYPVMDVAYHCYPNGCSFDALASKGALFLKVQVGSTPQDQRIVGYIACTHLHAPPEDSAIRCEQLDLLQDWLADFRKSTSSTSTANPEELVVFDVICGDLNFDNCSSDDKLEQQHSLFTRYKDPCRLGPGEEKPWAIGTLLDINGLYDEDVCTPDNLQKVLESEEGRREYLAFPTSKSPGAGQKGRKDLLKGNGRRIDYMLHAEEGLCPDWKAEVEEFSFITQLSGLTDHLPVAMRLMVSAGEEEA
# [1] = tested on: exosome secretion and RNA loading onto exosomes; conditions: cited from earlier work
# [2] = tested on: primary mouse bone marrow-derived macrophages (BMDMs); assay: Exosome transfer from treated primary mouse hepatocytes to bone marrow-derived macrophages, inflammatory response (IL-6 mRNA); conditions: PA 100 μM for 20 hours; exosome fraction by MagCapture kit
# From the text: (§1) (A) A scheme of the exosome transfer from cultured primary mouse hepatocytes to primary mouse bone marrow-derived macrophages (BMDMs). […] The same number of exosomes was used.
# (§2) SMPD3 plays a critical role in EV secretion and affects components of EV such as RNA.
# SMPD3 = tested on: SMPD3
# From the text: as §1, §2
SMILES,IC50 (N-SMase) [µM],Effect on RNA loading onto exosomes [1],Effect on exosome secretion [1],Inflammatory effect (IL-6 mRNA expression) in BMDMs of exosomes from hepatocytes treated with palmitate [2],Expression of SMPD3 in cultured hepatocytes on palmitate exposure (SMPD3)
Cl.Cl.O=C(/C=C/c1ccc(/C=C/C(=O)Nc2ccc(C3=NCCN3)cc2)cc1)Nc1ccc(C2=NCCN2)cc1 [GW4869],1,inhibit,inhibit,,
CCCCCCCCCCCCCCCC(=O)O [palmitate],,,,increase expression of IL-6 mRNA in BMDMs; also recorded: caused higher inflammatory responses in primary murine macrophages,induced
